Test results published in PubChem BioAssay (NCI).
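1) Cells in 96-well plates. 2) Compound, 48 h, 5 concentrations. 3) Linear interpolation between surrounding doses. 4) Unreached endpoint = highest concentration. Here, GI50 denotes the concentration required for 50% inhibition of growth. TGI marks complete inhibition of growth.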

Experiments:
Assay in all cases: NCI anticancer screen, dose series, 48 h
SR leukemia = system: SR leukemia
UACC-62 melanoma = system: UACC-62 melanoma
MCF7 breast = system: MCF7 breast
U251 CNS = system: U251 CNS
SF-295 CNS = system: SF-295 CNS
HOP-92 NSCLC = system: HOP-92 NSCLC
IGROV1 ovarian = system: IGROV1 ovarian
OVCAR-4 ovarian = system: OVCAR-4 ovarian
HOP-62 NSCLC = system: HOP-62 NSCLC
KM12 colon = system: KM12 colon
786-0 renal = system: 786-0 renal
DU-145 prostate = system: DU-145 prostate
HL-60(TB) leukemia = system: HL-60(TB) leukemia
MDA-MB-231 breast = system: MDA-MB-231 breast
SK-MEL-5 melanoma = system: SK-MEL-5 melanoma
NCI-H460 lung = system: NCI-H460 lung
MOLT-4 leukemia = system: MOLT-4 leukemia
SF-268 CNS = system: SF-268 CNS
UACC-257 melanoma = system: UACC-257 melanoma
UO-31 renal = system: UO-31 renal
CCRF-CEM leukemia = system: CCRF-CEM leukemia
EKVX NSCLC = system: EKVX NSCLC
M14 melanoma = system: M14 melanoma
NCI-H226 lung = system: NCI-H226 lung
LOX IMVI melanoma = system: LOX IMVI melanoma
COLO 205 colon = system: COLO 205 colon
K-562 leukemia = system: K-562 leukemia
CAKI-1 renal = system: CAKI-1 renal
A549 NSCLC = system: A549 NSCLC
PC-3 prostate = system: PC-3 prostate
OVCAR-5 ovarian = system: OVCAR-5 ovarian
SK-MEL-2 melanoma = system: SK-MEL-2 melanoma
HCT-15 colon = system: HCT-15 colon
RXF 393 renal = system: RXF 393 renal
SK-OV-3 ovarian = system: SK-OV-3 ovarian
SK-MEL-28 melanoma = system: SK-MEL-28 melanoma
NCI-H522 lung = system: NCI-H522 lung
OVCAR-3 ovarian = system: OVCAR-3 ovarian
SF-539 CNS = system: SF-539 CNS
MDA-MB-435 = system: MDA-MB-435
SNB-19 CNS = system: SNB-19 CNS
BT-549 breast = system: BT-549 breast
ACHN renal = system: ACHN renal
OVCAR-8 ovarian = system: OVCAR-8 ovarian
RPMI-8226 leukemia = system: RPMI-8226 leukemia
SW-620 colon = system: SW-620 colon
T-47D breast = system: T-47D breast
NCI/ADR-RES ovarian = system: NCI/ADR-RES ovarian
NCI-H23 lung = system: NCI-H23 lung
TK-10 renal = system: TK-10 renal
HCC-2998 colon = system: HCC-2998 colon
SN12C renal = system: SN12C renal
HS 578T breast = system: HS 578T breast
HCT-116 colon = system: HCT-116 colon

Q: For `C=C(CN1CCc2ccccc2C1)c1ccc(C(=O)Nc2ccccc2N)cc1`, which GI50 (SR leukemia) is on record?
A: 0.484 µM

Q: And the TGI (SR leukemia)?
A: > 50 µM

Q: What about the GI50 (UACC-62 melanoma) of the same compound?
A: 0.821 µM

Q: What about the TGI (UACC-62 melanoma) of the same compound?
A: 3.3 µM

Q: And the GI50 (MCF7 breast)?
A: 2.08 µM

Q: What about the TGI (MCF7 breast) of the same compound?
A: > 31.6 µM

Q: And the GI50 (U251 CNS)?
A: 0.911 µM

Q: And the TGI (U251 CNS)?
A: 4.8 µM

Q: And the GI50 (SF-295 CNS)?
A: 1.27 µM

Q: And the TGI (SF-295 CNS)?
A: 3.53 µM

Q: What about the GI50 (HOP-92 NSCLC) of the same compound?
A: 3.37 µM

Q: And the TGI (HOP-92 NSCLC)?
A: 15.8 µM

Q: And the GI50 (IGROV1 ovarian)?
A: 1.54 µM

Q: What about the TGI (IGROV1 ovarian) of the same compound?
A: 17.6 µM

Q: And the GI50 (OVCAR-4 ovarian)?
A: 1.92 µM

Q: What about the TGI (OVCAR-4 ovarian) of the same compound?
A: 19.4 µM

Q: And the GI50 (HOP-62 NSCLC)?
A: 1 µM

Q: What about the TGI (HOP-62 NSCLC) of the same compound?
A: 17 µM

Q: And the GI50 (KM12 colon)?
A: 1.26 µM

Q: And the TGI (KM12 colon)?
A: 4.54 µM

Q: And the GI50 (786-0 renal)?
A: 1.53 µM

Q: What about the TGI (786-0 renal) of the same compound?
A: 11.6 µM

Q: And the GI50 (DU-145 prostate)?
A: 2.45 µM

Q: What about the TGI (DU-145 prostate) of the same compound?
A: 15.7 µM

Q: What about the GI50 (HL-60(TB) leukemia) of the same compound?
A: 3.18 µM

Q: And the TGI (HL-60(TB) leukemia)?
A: > 12.3 µM

Q: And the GI50 (MDA-MB-231 breast)?
A: 0.973 µM

Q: What about the TGI (MDA-MB-231 breast) of the same compound?
A: 3.15 µM

Q: What about the GI50 (SK-MEL-5 melanoma) of the same compound?
A: 1.61 µM

Q: And the TGI (SK-MEL-5 melanoma)?
A: 6.86 µM

Q: And the GI50 (NCI-H460 lung)?
A: 3.06 µM

Q: What about the TGI (NCI-H460 lung) of the same compound?
A: > 32 µM

Q: And the GI50 (MOLT-4 leukemia)?
A: 0.72 µM

Q: What about the TGI (MOLT-4 leukemia) of the same compound?
A: 2.03 µM

Q: What about the GI50 (SF-268 CNS) of the same compound?
A: 1.87 µM

Q: And the TGI (SF-268 CNS)?
A: 9.74 µM

Q: What about the GI50 (UACC-257 melanoma) of the same compound?
A: 1.55 µM

Q: What about the TGI (UACC-257 melanoma) of the same compound?
A: 16.2 µM

Q: And the GI50 (UO-31 renal)?
A: 2.87 µM

Q: What about the TGI (UO-31 renal) of the same compound?
A: 8.8 µM

Q: What about the GI50 (CCRF-CEM leukemia) of the same compound?
A: 1.96 µM

Q: And the TGI (CCRF-CEM leukemia)?
A: 12.7 µM

Q: And the GI50 (EKVX NSCLC)?
A: 5.68 µM

Q: And the TGI (EKVX NSCLC)?
A: > 50 µM

Q: What about the GI50 (M14 melanoma) of the same compound?
A: 1.73 µM

Q: And the TGI (M14 melanoma)?
A: 18.4 µM

Q: What about the GI50 (NCI-H226 lung) of the same compound?
A: 1.49 µM

Q: And the TGI (NCI-H226 lung)?
A: 9.2 µM

Q: And the GI50 (LOX IMVI melanoma)?
A: 0.316 µM

Q: And the TGI (LOX IMVI melanoma)?
A: 1.2 µM

Q: What about the GI50 (COLO 205 colon) of the same compound?
A: 1.52 µM

Q: What about the TGI (COLO 205 colon) of the same compound?
A: 7.4 µM

Q: And the GI50 (K-562 leukemia)?
A: 2.32 µM

Q: What about the TGI (K-562 leukemia) of the same compound?
A: > 11.3 µM

Q: What about the GI50 (CAKI-1 renal) of the same compound?
A: 1.2 µM

Q: What about the TGI (CAKI-1 renal) of the same compound?
A: 7.69 µM

Q: What about the GI50 (A549 NSCLC) of the same compound?
A: 2.05 µM

Q: What about the TGI (A549 NSCLC) of the same compound?
A: > 50 µM

Q: And the GI50 (PC-3 prostate)?
A: 2.01 µM

Q: What about the TGI (PC-3 prostate) of the same compound?
A: > 50 µM

Q: And the GI50 (OVCAR-5 ovarian)?
A: 2.64 µM

Q: And the TGI (OVCAR-5 ovarian)?
A: > 20.2 µM

Q: What about the GI50 (SK-MEL-2 melanoma) of the same compound?
A: 3.16 µM

Q: What about the TGI (SK-MEL-2 melanoma) of the same compound?
A: 19.1 µM

Q: And the GI50 (HCT-15 colon)?
A: 0.94 µM

Q: And the TGI (HCT-15 colon)?
A: 5.11 µM

Q: And the GI50 (RXF 393 renal)?
A: 1.37 µM

Q: And the TGI (RXF 393 renal)?
A: 4.76 µM

Q: And the GI50 (SK-OV-3 ovarian)?
A: 1.08 µM

Q: And the TGI (SK-OV-3 ovarian)?
A: 3.17 µM

Q: And the GI50 (SK-MEL-28 melanoma)?
A: 0.389 µM

Q: And the TGI (SK-MEL-28 melanoma)?
A: 6.53 µM

Q: What about the GI50 (NCI-H522 lung) of the same compound?
A: 0.732 µM

Q: What about the TGI (NCI-H522 lung) of the same compound?
A: 3.72 µM

Q: What about the GI50 (OVCAR-3 ovarian) of the same compound?
A: 1.38 µM

Q: What about the TGI (OVCAR-3 ovarian) of the same compound?
A: 6.76 µM

Q: And the GI50 (SF-539 CNS)?
A: 1.3 µM

Q: And the TGI (SF-539 CNS)?
A: 4.28 µM

Q: And the GI50 (MDA-MB-435)?
A: 1.47 µM

Q: And the TGI (MDA-MB-435)?
A: 4.23 µM

Q: And the GI50 (SNB-19 CNS)?
A: 2.39 µM

Q: And the TGI (SNB-19 CNS)?
A: > 50 µM

Q: What about the GI50 (BT-549 breast) of the same compound?
A: 1.69 µM

Q: What about the TGI (BT-549 breast) of the same compound?
A: 6.16 µM

Q: What about the GI50 (ACHN renal) of the same compound?
A: 1.01 µM

Q: And the TGI (ACHN renal)?
A: 3.5 µM

Q: And the GI50 (OVCAR-8 ovarian)?
A: 1.09 µM

Q: What about the TGI (OVCAR-8 ovarian) of the same compound?
A: 13.8 µM

Q: What about the GI50 (RPMI-8226 leukemia) of the same compound?
A: 0.793 µM

Q: What about the TGI (RPMI-8226 leukemia) of the same compound?
A: > 12.9 µM

Q: And the GI50 (SW-620 colon)?
A: 1.87 µM

Q: And the TGI (SW-620 colon)?
A: > 42.8 µM

Q: What about the GI50 (T-47D breast) of the same compound?
A: > 15.8 µM

Q: What about the TGI (T-47D breast) of the same compound?
A: > 39 µM

Q: And the GI50 (NCI/ADR-RES ovarian)?
A: 1.11 µM

Q: What about the TGI (NCI/ADR-RES ovarian) of the same compound?
A: > 9.95 µM

Q: What about the GI50 (NCI-H23 lung) of the same compound?
A: 0.677 µM

Q: What about the GI50 (TK-10 renal) of the same compound?
A: 5.74 µM

Q: And the TGI (TK-10 renal)?
A: 14.8 µM

Q: What about the GI50 (HCC-2998 colon) of the same compound?
A: 0.0899 µM

Q: And the TGI (HCC-2998 colon)?
A: 0.379 µM

Q: What about the GI50 (SN12C renal) of the same compound?
A: 0.978 µM

Q: What about the TGI (SN12C renal) of the same compound?
A: 5.32 µM

Q: And the GI50 (HS 578T breast)?
A: 3.7 µM

Q: And the TGI (HS 578T breast)?
A: 36.5 µM

Q: And the GI50 (HCT-116 colon)?
A: 1.93 µM

Q: What about the TGI (HCT-116 colon) of the same compound?
A: > 23.2 µM
